According to patent US20110020925A1, “NEW MODULATING MOLECULES FOR AN IMPROVED REGULATED EXPRESSION SYSTEM” (BAYER SCHERING PHARMA AKTIENGESELLSCHAFT, priority 2007, published 2011):
Substitutions are numbered along the chain they refer to.

Columns and labels:
murine acute EAE model = experiment: Mouse acute EAE model, clinical scoring; format: in vivo, SJL mice; conditions: for clinical scores of EAE, positive controls: i.p. twice daily, Mesopram 9 mg/kg, Prednisolone 2.5 mg/kg
original RP (pGT45) = molecular target: T1, original RP (pGT45) (Homo sapiens, UniProt P06401); experiment: In vivo mSEAP serum level after inducer, mice with pGT45 (original RP); conditions: 0.33 mg/kg or 1 mg/kg i.p. days 7-10
T1 construct: expressed in transfected cells; host or cells: mouse hind limb muscle in vivo (plasmid injection plus electroporation)
T1 sequence (P06401 640-914): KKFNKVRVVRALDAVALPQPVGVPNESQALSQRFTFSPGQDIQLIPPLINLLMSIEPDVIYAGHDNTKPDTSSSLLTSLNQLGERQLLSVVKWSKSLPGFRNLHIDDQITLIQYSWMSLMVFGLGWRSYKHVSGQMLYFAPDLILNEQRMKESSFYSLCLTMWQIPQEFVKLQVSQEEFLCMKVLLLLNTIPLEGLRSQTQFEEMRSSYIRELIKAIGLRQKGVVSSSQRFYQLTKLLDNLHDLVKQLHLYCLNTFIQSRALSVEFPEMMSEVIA
Experimental: Upon the conclusion of in vitro testing, the divergent orientation of mSEAP and RP in pGT45 and pGT1048 were tested side-by-side in a mouse study. Mice were injected with plasmid DNA in the hind limbs and electroporation was used to deliver the DNA into the muscle cells on day 0. […] Six hours after the last injection on day 10, samples of blood were collected from the tail veins of the mice. mSEAP levels in the serum were measured to determine the level of this reporter expression following induction with compounds. Additional blood samples were collected prior to injection of inducers on day 7, as well as on days 18 and 25 to monitor the drop off of mSEAP expression.

IP-10 [1] = experiment: MFP dose/response and plasmid re-injection with BRES-1/mIFN plasmid pGT26 in vivo, IP-10 ELISA; design: species or system C57BI/6 mice; conditions: MFP 0.0033 mg/kg i.p. days 7-10
Experimental: The inducible mIFN-γ expression plasmid pGT26 was injected and electroporated on day 0 into hind limb muscles of C57BI/6 mice. […] Bleeds were taken on day 88 and 200, respectively. Serum was assayed for the chemokine IP-10 by ELISA. The results are shown as the mean (n=5 animals per group).
In addition, a complete pharmacokinetic profile of the expression of the therapeutic molecule (TM) can be performed using an activator molecule (AM) to determine the AM dose/response, as well as the kinetics of induction of TM expression following AM administration. […] Blood was collected at days 11 post-injection, and serum samples were assayed for IP-10 (see “Experimental Design” below for details). […] By day 67 the level of IP-10 had decreased several-fold from the day 11 level, so the plasmid DNA was re-injected at day 77.
For safety studies in humans, a complete characterization of the rate at which the activator molecule (AM) and TM expression can be turned “off” following withdrawal of the AM can be performed. The frequency of AM dosing necessary to achieve steady state levels of the TM can be evaluated.
• DNA solutions: Each mouse received 250 ug of plasmid DNA in 150 ul PBS. • DNA delivery: Adult male C57BI/6 mice were injected bilaterally on day 0 with 250 ug plasmid DNA per mouse in 150 ul PBS. […]

V729L/W755A RP (pBRES) = molecular target: T2, V729L/W755A RP (pBRES) (Homo sapiens, UniProt P06401, V729L/W755A); experiment: Induction of luciferase, mSEAP or hIFNb from pBRES with V729L/W755A RP in C2C12 cells; format: cell-based, mouse; conditions: every orientation, three transgenes
T2 construct: expressed in transfected cells; host or cells: C2C12 mouse muscle cells
T2 sequence (P06401 640-914 V729L/W755A): T1 sequence (P06401 640-914) with V90L, W116A

GAL-4 DBS = conditions: read-out: Kd for binding; cited from earlier work
JE = JE plasma level in mice (ELISA) after mIFN-β protein or gene delivery; format: in vivo, C57BI/6 mice; conditions: each of three doses, i.v. or i.m.
Experimental: (§1) FIG. 7 illustrates induction levels of IP-10 (A) and JE (B) following i.v. or i.m. injection of murine IFN-ÿ protein. C57BI/6 mice were administered 15, 150, or 500 ng of purified recombinant mIFN-ÿ protein (specific activity=2.0×108 units/mg) by either i.v. (via tail vein) or i.m. injection (n=3 mice per group). The mice were bled at 2, 4, 6, 12, 24, and 48 hours post-injection, and the plasma levels of IP-10 and JE were measured by ELISA (R&D Systems).
C. Chemokines IP-10 and JE: During the analysis of plasma samples from mice treated with mIFN-β protein, two murine chemokines, IP-10 and JE the murine homologue of MCP-1 (monocyte chemoattractant protein, see e.g., Yoshimura, T (1989) FEBS Lett 244: 487-93), were also identified to have a similar response and activation to mIFN-β as Mx1 RNA (FIGS. 7 and 8). A strong induction of IP-10 and JE was seen 2 hours after administration of mIFN-β protein either i.v. or i.m. IP-10 levels increased 3000-fold at the high dose delivered i.v. With each of the three mIFN-β doses tested, a rapid drop to background in the plasma levels of IP-10 and JE was observed by 24 hours.

Mx1 RNA [2] = experiment: Mx1 RNA induction in L929 cells (TaqMan RT-PCR); format: cell-based, murine
Experimental: FIG. 5 illustrates Mx1 RNA induction in vitro (in L929 cells) by mIFN-ÿ. L929 cells were seeded at 5×10^5 cells in 6 well plates and stimulated with increasing amounts of purified recombinant mIFN-ÿ protein. Four hours after treatment the cells were harvested, RNA isolated, and Mx1 RNA quantitated by TaqMan analysis. Mx1 RNA expression is plotted as the fold increase relative to GAPDH RNA.
A quantitative PCR/RT-PCR assay was developed to quantitate the levels of Mx1 mRNA in murine PBMC's. Specifically, peripheral blood mononuclear cells (PBMCs) were isolated from mice treated with either mIFN-β protein or following gene-based delivery of the mIFN-β gene. Blood samples obtained from treated mice were centrifuged on a ficoll cushion for 25 minutes at 2,000 rpm. Purified PBMCs were pelleted and RNA for the Mx1 assay was purified using the “RNAeasy” mini extraction kit from Qiagen. The RNA was stored in H2O at −80° C. Mx1 RT-PCR was performed using TaqMan® chemistry and analysis was done on the Applied Biosystems (ABI) PRISM® 7700 Sequence Detection instrument. For reverse transcription of the RNA and amplification of cDNA, the “One-step TaqMan® RNA” kit from ABI was used. […] The samples were analyzed with an Mx1-specific probe/primer combination. Mx1 expression was normalized to GAPDH expression measured in parallel using a standard assay from ABI. […]

Mx1 RNA [3] = experiment: Mx1 RNA induction in PBMCs of mice (quantitative RT-PCR) after mIFN-β protein or gene delivery; format: in vivo, C57BI/6 mice
Experimental: C57BI/6 mice were administered 15, 150, or 500 ng of purified recombinant mIFN-ÿ protein (specific activity-2.0×108 units/mg) by either i.v. (via tail vein) or i.m. injection (n=3 mice per group). At the specified time points post-injection mice were bled, and RNA was isolated from PBMCs. Mx1 RNA was measured by quantitative RT-PCR. The fold increase in Mx1 RNA is expressed relative to GAPDH values measured in the same samples. The controls include naive mice (N), and mice injected with the vehicle buffer only followed by Mx1 analysis at 2 hours (V2h) or 4h (V4h) post-injection. Each column represents the mean value+/−standard deviation.
A quantitative PCR/RT-PCR assay was developed to quantitate the levels of Mx1 mRNA in murine PBMC's. Specifically, peripheral blood mononuclear cells (PBMCs) were isolated from mice treated with either mIFN-β protein or following gene-based delivery of the mIFN-β gene. Blood samples obtained from treated mice were centrifuged on a ficoll cushion for 25 minutes at 2,000 rpm. […] The samples were analyzed with an Mx1-specific probe/primer combination. Mx1 expression was normalized to GAPDH expression measured in parallel using a standard assay from ABI.
B. Bolus Injection of mIFN-β Protein Induces Transient Biomarker Response In Vivo: The biomarker response after bolus injection of purified recombinant mIFN-β was measured in these studies.

IP-10 [4] = experiment: IP-10 plasma level in mice (ELISA) after mIFN-β protein or gene delivery; format: in vivo, C57BI/6 mice
Experimental: as §1
FIG. 8 illustrates the induction of IP-10 following intramuscular injection of AAV-1-mIFN-ÿ DNA or mIFN-ÿ plasmid DNA with electroporation (EP) in mice. Normal mice (C57BI/6) were injected i.m. with either AAV-1-mIFN-ÿ (5×10^9 viral particles), or mIFN-ÿ plasmid DNA (150 ug) with electroporation. Mice were bled at the indicated time points and IP-10 levels in plasma were determined by ELISA. Each column represents the mean value+/−the standard deviation (n=5 mice per group).
C. Chemokines IP-10 and JE: During the analysis of plasma samples from mice treated with mIFN-β protein, two murine chemokines, IP-10 and JE the murine homologue of MCP-1 (monocyte chemoattractant protein, see e.g., Yoshimura, T (1989) FEBS Lett 244: 487-93), were also identified to have a similar response and activation to mIFN-β as Mx1 RNA (FIGS. 7 and 8). […]
The plasma samples were also analyzed for IP-10 and JE (FIGS. 7 and 8). […]

[5] = Luciferase reporter gene assay for activity of purified mIFN-β protein; format: cell-based; conditions: commercial mIFN-β reference standard
Experimental: Specifically, the gene encoding mIFN-β was cloned into a pCEP4 expression vector (Invitrogen). The expression plasmid encoding mIFN-β was transiently transfected into 293E cells (Edge Biosystems) using X-tremeGene Ro-1539 Transfection Reagent (Roche). Murine IFN-β protein was purified from the medium by ion-exchange chromatography and by hydrophobic-interaction chromatography. The product was sialyzed and concentrated against dilution buffer (50 mM sodium acetate, pH 5.5, 150 mM sodium chloride, and 5% polypropylene glycol) and sterile filtered. Aliquots of the purified protein were stored at −80° C. The activity of the purified protein was assessed using a luciferase reporter gene assay (Hardy et al. (2001) Blood 97:473-482), using a commercial mIFN-β reference standard from Access Biomedical (San Diego, Calif.). The specific activity of the purified protein was 2×10^8 units/mg.

For C[C@]12C=CC(=O)C=C1CC[C@@H]1[C@@H]2[C@@H](O)C[C@@]2(C)[C@H]1CC[C@]2(O)C(=O)CO [Prednisolone], the “clinical scores of EAE, positive controls” value (murine acute EAE model; first study) was “significantly decreased clinical scores” and the “clinical scores of EAE, positive controls” value (murine acute EAE model; second study) was “significantly decreased clinical scores”.
With CC#C[C@]1(O)CC[C@H]2[C@@H]3CCC4=CC(=O)CCC4=C3[C@@H](c3ccc(N(C)C)cc3)C[C@@]21C [MFP, 11-(4-dimethylaminophenyl)-17-hydroxy-17c-propynyl-4,9-estradiene-3-one] the “response (serum mSEAP) of mice to inducer” value (original RP (pGT45)) was “responded well”, the “IP-10 levels at lowest MFP dose” value (IP-10 [1]) was “no increase over background IP-10 levels” and the “activity of engineered RP when induced” value (V729L/W755A RP (pBRES)) was “retained full activity”.
In the case of “GAL-4 residues 1-100: N-terminal DNA binding domain fragment of yeast GAL-4 protein”, the Kd (GAL-4 DBS) is listed as 3 nM.
In the case of “mIFN-β: purified recombinant murine interferon-β protein expressed in 293E cells”, the “time of drop to background of JE plasma level” value (JE) is reported as no more than 24 h, the “increase in the level of Mx1 RNA” value (Mx1 RNA [2]) is reported as 100 fold and the “EC50 of Mx1 RNA induction” value (Mx1 RNA [2]; 4 hours treatment) is reported as “approximately 50 pg/ml”. For the same compound, the “time of highest Mx1 expression levels after injection” value (Mx1 RNA [3]; bolus protein) was 2 h, the “time after injection beyond which no Mx1 RNA levels above background were detected” value (Mx1 RNA [3]; bolus protein i.m.) was 12 h and the “time of drop to background of IP-10 plasma level” value (IP-10 [4]; each of three doses, i.v. or i.m.) was no more than 24 h. For the same compound, the “increase of IP-10 levels” value (IP-10 [4]; high dose delivered i.v.) was 3000 fold, the “specific activity of the purified protein” value [5] was 2×10^8 units/mg and the “clinical scores of EAE compared to vehicle treated mice” value (murine acute EAE model; first study, 30,000 units s.c. every other day) was “did not reach statistical significance”. The “clinical scores of EAE compared with vehicle treated mice” value (murine acute EAE model; first study, 100,000 units s.c. every other day) was “significantly decreased clinical scores” and the “clinical scores compared to the vehicle control treated mice” value (murine acute EAE model; second study, 100,000 Units s.c. every other day) was “significantly decreased clinical scores”.
For CCCOc1cc([C@]2(C)CNC(=O)O2)ccc1OC [Mesopram], the “clinical scores of EAE, positive controls” value (murine acute EAE model; first study) was “significantly decreased clinical scores” and the “clinical scores of EAE, positive controls” value (murine acute EAE model; second study) was “significantly decreased clinical scores”.
